Test results: US5633219A, “5H-pyrrolo(3',4':5,6)(1,4)dithiin o(2,3-C)(1,2,5)thiadiazole-5,7(6H)-dione, compositions containing them and their use as antimicrobial and marine antifouling agents” (The Dow Chemical Company, priority 1996, dated 1997)
Values after ≈ are worked out from the molar mass of the structure shown. Where two headings read alike, the source gives them in different places.

What was measured:
[1] = test system: Saccharomyces cerevisiae (Sc); assay: Minimum inhibitory concentration, malt yeast agar, Saccharomyces cerevisiae; format: cell-based, Saccharomyces cerevisiae ATCC 4105; settings: malt yeast agar, 30° C, 48 hours (yeast), read-out: Minimum Inhibitory Concentration, Sc
Description: (§1) Malt yeast agar is prepared by adding 3 g yeast extract and 45 g malt agar per liter of deionized water. The specific agar is dispensed in 30 mL aliquots into 25×200 mm test tubes, capped and autoclaved for 15 minutes at 115° C.
(§2) The inoculation with the yeast and fungi is accomplished as follows. Cultures of yeast and fungi are incubated for seven days on malt yeast agar at 30° C. These cultures are used to prepare suspensions by the following procedure. A suspension of each organism is prepared by adding 10 mL of sterile saline and 10 microliters of octylphenoxy polyethoxy ethanol to the agar slant of yeast or fungi. The sterile saline/octylphenoxy polyethoxy ethanol solution is then agitated with a sterile swab to suspend the microorganism grown on the slant. Each resulting suspension is diluted into sterile saline (1 part suspension to 9 parts sterile saline). Aliquots of these dilutions are placed in individual wells of Steer's Replicator and petri plates inoculated as previously described. The petri plates are incubated at 30° C. and read after 48 hours for yeast and 72 hours for fungi.

Escherichia coli (Ec) = assay: Minimum inhibitory concentration, nutrient agar, Escherichia coli; settings: 48 h
Fusarium oxysporum (Of) = assay: Minimum inhibitory concentration, malt yeast agar, Fusarium oxysporum; format: cell-based, Fusarium oxysporum ATCC 48112; settings: 30° C, 72 hours (fungi), read-out: Minimum Inhibitory Concentration, Fo
Description: as §1, §2

Candida albicans (Ca) = assay: Minimum inhibitory concentration, malt yeast agar, Candida albicans; format: cell-based, Candida albicans ATCC 10231; settings: malt yeast agar, 30° C, 48 hours (yeast); read-out: Minimum Inhibitory Concentration, Ca
Description: as §1, §2

[2] = test system: Enterobacter aerogenes (Ea); assay: Minimum inhibitory concentration, nutrient agar, Enterobacter aerogenes; settings: Klebsiella aerogenes, 48 h
[3] = test system: Salmonella choleraesuis (Sc); assay: Minimum inhibitory concentration, nutrient agar, Salmonella choleraesuis; format: cell-based, Salmonella choleraesuis ATCC 10708; settings: Salmonella enterica, 30° C, 48 hours
marine organisms = assay: Marine antifouling rating of coated test panels exposed under a marine surface; settings: scale 10 (completely free of growth) to 0 (completely covered), 1.0 g compound in 9.0 g latex binder
Description: Test panels are prepared from clear, rigid polyvinyl chloride film that is 0.381×10^-3 m thick and has one textured surface. The test panels are 0.1524 m by 0.1524 m squares that have 0.00635 m holes punched at corners on 0.127 m centers. A 0.102 square template, with a 0.067 m diameter hole at the center, is attached to the center of the textured surface of the test panels.
A candidate marine antifoulant compound (1.0 g) is stirred into a resinous latex binder (9.0 g). A portion of the compound/binder mixture (1.5 g) is added to the center of the test panel and uniformly spread over the circular area inside the template.
Water is added dropwise as needed to properly spread the compound/binder mixture. The template prevents the compound/binder mixture from spreading beyond the uncovered area. The test panel is allowed to sit for between 10 to 30 minutes until the edge of the spread compound/binder mixture has dried. The template is then removed. The test panel is then allowed to dry for 8 to 12 hours at room temperature.
Two test panels are prepared for each candidate marine antifoulant compound. Two control test panels are also prepared by only treating with the resinous latex binder. One test panel of each candidate marine […] compound is attached over a white background to the topside of an exposure support apparatus. The second test panel is attached over a black background to the underside of the exposure support apparatus. The exposure support apparatus is placed horizontally 0.0254 m under a marine surface with the white background topside facing up. […]
After being removed from the exposure support apparatus, each test panel is inspected and rated for marine organism growth on both the treated and untreated areas of the test panel. The marine organisms present on the treated and untreated areas are noted. The presence of algae spores and bacterial slime are noted but not included in rating each test panel. The test panels are rated on a scale from 10 (representing completely free of marine organism growth) to 0 (representing completely covered with marine organism growth).

[4] = test system: Penicillium chrysogenum (PC); assay: Minimum inhibitory concentration, malt yeast agar, Penicillium chrysogenum; format: cell-based, Penicillium chrysogenum ATCC 9480; settings: malt yeast agar, 30° C, 72 hours (fungi); read-out: Minimum Inhibitory Concentration, Pc
Description: as §1, §2

[5] = test system: Pseudomonas aeruginosa (Pa); assay: Minimum inhibitory concentration, nutrient agar, Pseudomonas aeruginosa; format: cell-based, Pseudomonas aeruginosa ATCC 10145; settings: 30° C, 48 hours
[6] = test system: Pseudomonas aeruginosa (PRD-10); assay: Minimum inhibitory concentration, nutrient agar, Pseudomonas aeruginosa PRD-10; settings: 48 h
Proteus vulgaris (Pv) = assay: Minimum inhibitory concentration, nutrient agar, Proteus vulgaris; settings: 48 h
[7] = test system: Aureobasidium pullulan (Ap); assay: Minimum inhibitory concentration, malt yeast agar, Aureobasidium pullulan; format: cell-based, Aureobasidium pullulan ATCC 16622; settings: 30° C, 48 hours for yeast and 72 hours for fungi
Description: as §1, §2

[8] = test system: Staphylococcus aureus (Sa); assay: Minimum inhibitory concentration, nutrient agar, Staphylococcus aureus; settings: 48 h
[9] = test system: Klebsiella pneumoniae (Kp); assay: Minimum inhibitory concentration, nutrient agar, Klebsiella pneumoniae; settings: 48 h
Trichoderma viride (Tv) = assay: Minimum inhibitory concentration, malt yeast agar, Trichoderma viride; format: cell-based, Trichoderma viride ATCC 8678; settings: malt yeast agar, 30° C, 72 hours (fungi); read-out: Minimum Inhibitory Concentration, Tv
Description: as §1, §2

Aspergillus niger (An) = assay: Minimum inhibitory concentration, malt yeast agar, Aspergillus niger; format: cell-based, Aspergillus niger ATCC 16404; settings: 30° C, 72 hours (fungi)
Description: as §1, §2

Bacillus subtilis (Bs) = assay: Minimum inhibitory concentration, nutrient agar, Bacillus subtilis; settings: 48 h
[10] = pH 6.8, read-out: Minimum inhibitory Concentration, Ec
[11] = pH 8.2, read-out: Minimum inhibitory Concentration, Ec
[12] = pH 6.8, read-out: Minimum inhibitory Concentration, Ea
[13] = pH 8.2, read-out: Minimum inhibitory Concentration, Ea
[14] = pH 6.8, read-out: Minimum inhibitory Concentration, PRD
[15] = pH 8.2, read-out: Minimum inhibitory Concentration, PRD
[16] = pH 6.8, read-out: Minimum inhibitory Concentration, Pv
[17] = pH 8.2, read-out: Minimum inhibitory Concentration, Pv
[18] = pH 6.8, read-out: Minimum inhibitory Concentration, Sa
[19] = pH 8.2, read-out: Minimum inhibitory Concentration, Sa
[20] = pH 6.8, read-out: Minimum inhibitory Concentration, Kp
[21] = pH 8.2, read-out: Minimum inhibitory Concentration, Kp
[22] = pH 6.8, read-out: Minimum inhibitory Concentration, Bs
[23] = pH 8.2, read-out: Minimum inhibitory Concentration, Bs

| SMILES | MIC [1] [µg/mL] | MIC (Escherichia coli (Ec); [10]) [µg/mL] | MIC (Escherichia coli (Ec); [11]) [µg/mL] | MIC (Fusarium oxysporum (Of)) [µg/mL] | MIC (Candida albicans (Ca)) [µg/mL] | MIC [2, 12] [µg/mL] | MIC [2, 13] [µg/mL] | MIC ([3]; pH 6.8, nutrient agar) [µg/mL] | MIC ([3]; pH 8.2, nutrient agar) [µg/mL] | MIC [4] [µg/mL] | MIC ([5]; pH 8.2, nutrient agar) [µg/mL] | MIC [6, 14] [µg/mL] | MIC [6, 15] [µg/mL] | MIC (Proteus vulgaris (Pv); [16]) [µg/mL] | MIC (Proteus vulgaris (Pv); [17]) [µg/mL] | MIC [7] [µg/mL] | MIC [8, 18] [µg/mL] | MIC [8, 19] [µg/mL] | MIC [9, 20] [µg/mL] | MIC [9, 21] [µg/mL] | further results |
| --- | --- | --- | --- | --- | --- | --- | --- | --- | --- | --- | --- | --- | --- | --- | --- | --- | --- | --- | --- | --- | --- |
| O=c1[nH]c(=O)c2sc3nsnc3sc1=2 [Example I, 5H-Pyrrolo(3',4':5,6)(1,4)dithiino-(2,3-C) (1,2,5)thiadiazole-5,7 (6H) -dione] | < 1 | 100 (≈ 411 µM) | > 500 | < 1 | 5 (≈ 20.6 µM) | 250 (≈ 1030 µM) | > 500 | 100 (≈ 411 µM) | > 500 | < 1 | > 500 | 500 (≈ 2060 µM) | > 500 | 50 (≈ 206 µM) | > 500 | < 1 | 100 (≈ 411 µM) | > 500 | 100 (≈ 411 µM) | > 500 | Marine Antifouling Rating, Bottom Panel (marine organisms; 6 weeks): 10; Marine Antifouling Rating, Top Panel (marine organisms; 6 weeks): 10; Marine Antifouling Rating, Bottom Panel (marine organisms; 10 weeks): 9; Marine Antifouling Rating, Top Panel (marine organisms; 10 weeks): 7; Marine Antifouling Rating, Bottom Panel (marine organisms; 16 weeks): 9; Marine Antifouling Rating, Top Panel (marine organisms; 16 weeks): 8; MIC (Trichoderma viride (Tv)): 5 µg/mL (≈ 20.6 µM); MIC (Aspergillus niger (An)): < 1 µg/mL; MIC (Bacillus subtilis (Bs); [22]): < 10 µg/mL; MIC (Bacillus subtilis (Bs); [23]): > 500 µg/mL |
| Cn1c(=O)c2sc3nsnc3sc=2c1=O [II, 6-Methyl-5H-Pyrrolo (3',4':5,6)(1,4)dithiino-(2,3-C)(1,2,5)thiadiazole-5,7(6H) -dione] | < 1 | 50 (≈ 194 µM) | > 500 | < 1 | < 1 | > 500 | > 500 | 100 (≈ 389 µM) | > 500 | < 1 | > 500 | > 500 | > 500 | 25 (≈ 97.2 µM) | > 500 | < 1 | 50 (≈ 194 µM) | 250 (≈ 972 µM) | 250 (≈ 972 µM) | > 500 | MIC ([5]; pH 6.8, nutrient agar): > 500 µg/mL; MIC (Trichoderma viride (Tv)): < 1 µg/mL; MIC (Aspergillus niger (An)): < 1 µg/mL; MIC (Bacillus subtilis (Bs); [22]): < 10 µg/mL; MIC (Bacillus subtilis (Bs); [23]): 250 µg/mL (≈ 972 µM) |
| CCn1c(=O)c2sc3nsnc3sc=2c1=O [III, 6-Ethyl-5H-Pyrrolo(3',4':5,6)(1,4)dithiino-(2,3-C)(1,2,5)thiadiazole-5,7(6H) -dione] | < 10 | 50 (≈ 184 µM) | > 500 | 250 (≈ 921 µM) | < 10 | > 500 | > 500 | 250 (≈ 921 µM) | > 500 | 25 (≈ 92.1 µM) | > 500 | > 500 | > 500 | 50 (≈ 184 µM) | > 500 | < 10 | 50 (≈ 184 µM) | 250 (≈ 921 µM) | 500 (≈ 1840 µM) | > 500 | MIC ([5]; pH 6.8, nutrient agar): > 500 µg/mL; MIC (Trichoderma viride (Tv)): 500 µg/mL (≈ 1840 µM); MIC (Bacillus subtilis (Bs); [22]): 25 µg/mL (≈ 92.1 µM); MIC (Bacillus subtilis (Bs); [23]): 100 µg/mL (≈ 369 µM) |
